In patent publication US20220332802A1, “METHODS AND COMPOSITIONS FOR TREATMENT OF NEURODEGENERATION” (Children's Hospital Medical Center, priority 2019, published 2022):

Tests used:
[1] = target: T1, GCase (Mus musculus, UniProt P17439)
T1 sequence (P17439 20-515): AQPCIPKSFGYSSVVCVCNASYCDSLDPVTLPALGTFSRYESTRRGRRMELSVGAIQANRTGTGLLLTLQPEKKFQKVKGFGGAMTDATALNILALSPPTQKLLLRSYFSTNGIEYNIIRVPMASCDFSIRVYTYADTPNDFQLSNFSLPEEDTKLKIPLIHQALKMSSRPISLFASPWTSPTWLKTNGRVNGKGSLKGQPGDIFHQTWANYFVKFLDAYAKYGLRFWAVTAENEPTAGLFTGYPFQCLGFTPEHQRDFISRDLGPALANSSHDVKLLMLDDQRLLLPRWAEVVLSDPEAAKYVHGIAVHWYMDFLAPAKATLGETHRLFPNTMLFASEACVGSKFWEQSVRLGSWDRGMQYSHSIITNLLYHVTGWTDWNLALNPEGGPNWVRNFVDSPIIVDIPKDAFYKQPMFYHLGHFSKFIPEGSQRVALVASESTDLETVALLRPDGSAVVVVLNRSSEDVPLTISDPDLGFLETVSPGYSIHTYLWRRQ

[2] = target: T2, glucocerebrosidase (GCase) (Mus musculus, UniProt P17439); assay: Targeting of GCase with CBE in WT and C5aR1-/- mice, 60-day observation; format: in vivo; details: CBE-injected WT mice
T2 construct: from tissue; brain examined
T2 sequence (P17439 20-515): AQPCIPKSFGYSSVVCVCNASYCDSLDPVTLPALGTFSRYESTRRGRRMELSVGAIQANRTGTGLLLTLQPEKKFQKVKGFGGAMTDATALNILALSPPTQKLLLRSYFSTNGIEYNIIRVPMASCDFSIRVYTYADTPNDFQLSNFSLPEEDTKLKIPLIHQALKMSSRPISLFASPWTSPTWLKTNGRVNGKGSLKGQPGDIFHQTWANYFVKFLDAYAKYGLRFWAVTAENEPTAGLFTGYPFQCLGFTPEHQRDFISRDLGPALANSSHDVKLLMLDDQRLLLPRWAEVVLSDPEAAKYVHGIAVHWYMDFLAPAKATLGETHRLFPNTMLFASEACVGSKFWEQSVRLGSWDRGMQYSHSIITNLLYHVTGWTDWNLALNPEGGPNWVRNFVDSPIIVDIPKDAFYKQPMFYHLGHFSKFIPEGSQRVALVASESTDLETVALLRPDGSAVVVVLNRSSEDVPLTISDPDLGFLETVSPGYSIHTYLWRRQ
Description: 9V/null mice suffered from massive accumulation of GC in the brain and loss of neurons. Applicant targeted glucocerebrosidase (GCase) with conduritol B epoxide (CBE) in WT and C5aR1^−/− mice. Strikingly, CBE-injected WT mice died within 30 days.

[3] = target: T1, GCase; parameters: from tissue; brain examined; details: i.p. 50 mg/kg/day for 4 weeks; cited from earlier work
[4] = target: T3, C5aR1 (Homo sapiens, UniProt P21730); details: cited from earlier work
T3 sequence (P21730 1-350): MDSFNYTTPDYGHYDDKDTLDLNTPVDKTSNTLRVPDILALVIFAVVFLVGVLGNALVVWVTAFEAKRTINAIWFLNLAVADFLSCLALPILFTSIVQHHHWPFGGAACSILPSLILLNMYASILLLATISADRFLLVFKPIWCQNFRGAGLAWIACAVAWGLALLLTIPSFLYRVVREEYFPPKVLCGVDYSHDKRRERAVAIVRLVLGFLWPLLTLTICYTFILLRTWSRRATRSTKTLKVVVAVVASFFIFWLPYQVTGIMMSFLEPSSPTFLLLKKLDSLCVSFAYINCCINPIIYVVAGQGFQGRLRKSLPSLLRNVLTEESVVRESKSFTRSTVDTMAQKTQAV

[5] = system: experimental Gaucher disease; details: cited from earlier work

## O[C@H]1[C@H](O)[C@@H](O)[C@@H]2O[C@@H]2[C@@H]1O (racemic) [CBE, conduritol B epoxide]
[1]; CBE-GCase targeted WT or C5aR1-/- mice, FIG. 8
  motor, memory and reactivity behaviour: no motor or memory defects but are hyper-reactive
[1]; brain of CBE-GCase targeted PD mouse model, FIG. 1
  brain glucosylceramide: increased glucosylceramide
[1]; brains of CBE-GCase targeted PD mouse model, FIG. 2
  brain C5a and C5aR1: increased C5a and C5aR1
[1]; brains of CBE-GCase targeted PD mouse model, FIG. 3
  brain pro-inflammatory cytokines: increased pro-inflammatory cytokines
[2]
  time to death: ≤ 30 days
[3]
  reduction of GCase activity: 25-50%

## Cyclo[N2-(1-Oxo-3-phenylpropyl)-Orn-Pro-D-Cha-Trp-Arg] [PMX 205]
[4]
  concentration at which the peptide specifically targets C5aR1: nanomolar concentrations
  manner of action at C5aR1: pseudo-irreversible and insurmountable

B1: C5a-(1-66, Cys27Ala)-A8B-Del.71-73) (protein)
chain: TLQKKIEEIAAKYKHSVVKKCCYDGAAVNNDETCEQRAARISLGPRCIKAFTECCVVASQLRANISFKRS
modifications: (C5a-(1-66,Cys27Ala)-A8B-Del 71-73)
notes: mutein of human C5a that targets C5aR1 and C5aR2 simultaneously
[5]
  survival and disease signs: increase survival and reverse disease signs
